# Measurements as given in patent US4748251A, “7-n-aminomethylenemitomycin derivative” (priority 1985, dated 1988).
# Like-named read-outs stand apart in the source and are kept apart here.
# Assays:
# [1] = system: Shigella sonnei ATCC 9290; assay: Antibacterial activity, agar dilution method, pH 7.0 (SS); type: cell-based
# Method: (§1) Antibacterial activities of some compounds covered by the present invention against various bacteria are shown by the minimum growth inhibitory concentration (μg/ml) in Table 1. The minimum growth inhibitory concentration was measured at pH 7.0 according to the agar dilution method. In the table, bacteria are indicated by the following letters.
# SS: Shigella sonnei ATCC 9290
# [2] = system: Proteus vulgalis ATCC 6897; assay: Antibacterial activity, agar dilution method, pH 7.0 (PV); type: cell-based
# Method: as §1
# PV: Proteus vulgalis ATCC 6897
# [3] = system: Streptococcus faecalis ATCC 10541; assay: Antibacterial activity, agar dilution method, pH 7.0 (SF); type: cell-based; conditions: Enterococcus faecalis
# Method: as §1
# SF: Streptococcus faecalis ATCC 10541
# [4] = system: Klebsiella pneumoniae ATCC 10031; assay: microbe, parasite or virus in culture; type: cell-based; conditions: ATCC10031, pH 7, read-out: minimum growth inhibitory concentration
# Method: The minimum growth inhibitory concentration was measured at pH 7.0 according to the agar dilution method. In the table, bacteria are indicated by the following letters.
# KP: Klebsiella pneumoniae ATCC 10031
# [5] = system: Staphylococcus aureus ATCC 6538P; assay: Antibacterial activity, agar dilution method, pH 7.0 (SA); type: cell-based; conditions: ATCC6538P
# Method: as §1
# SA: Staphylococcus aureus ATCC 6538P
# [6] = system: Bacillus subtilis 10707; assay: Antibacterial activity, agar dilution method, pH 7.0 (BS); type: cell-based
# Method: as §1
# BS: Bacillus subtilis 10707
# [7] = Acute toxicity in mice; design: species or system mouse (ddY strain); conditions: mouse, in vivo, ip; intraperitoneally once, ddY mice, 14 days observation, Beherns Kaerber's method
# Method: (§2) Taking some of the compounds falling within the present invention as examples, anti-tumor activity (ED50) against Sarcoma 180 solid tumor and acute toxicity (LD50) as well as effect on peripheral leucocytes number (WBC4000) are shown in Table 2.
# Each animal of the test group consisting of 5 ddY mice was administered intraperitoneally once with a test compound. […] The LD50 was determined by Beherns Kaerber's method.
# [8] = system: Sarcoma 180 solid tumor; assay: Anti-tumor activity against Sarcoma 180 solid tumor in mice; type: in vivo, mouse (ddY strain); conditions: Mus musculus, Sarcoma-180, ip, 168 h; dose reducing tumor volume to 50% of control; intraperitoneal 24 hours after implantation; tumor measured 7 days after implantation
# Description: as §2
# (1) Effect against Sarcoma 180 solid tumor cells:
# 5×10^6 cells of Sarcoma 180 solid tumor were implanted into ddY mice. 7 days later, ascites cells were sampled. The cells were washed once with a sterilized physiological solution of sodium chloride and were used to prepare a cell supspension containing 5×10^7 cells per ml. On each occasion, 0.1 ml of the cell suspension was subcutaneously implanted into the right axilla of a male mouse (ddY strain; body weight 20±2 g). The test compound was dissolved in a physiological solution of sodium chloride with or without addition of Tween 80 and was administered intraperitoneally into each mouse of a group consisting of 5 mice at a dose of 0.1-0.2 ml, 24 hours after the implantation of the tumor cells.
# The anti-tumor activity was determined in the following manner. 7 days after the implantation, the major axis (a) and the minor axis (b) of the tumor were measured to calculate a value of "a×b^2 /2" which corresponds to the volume of the tumor. The anti-tumor activity was expressed by the ratio of the volume of the tumors (T) of the group of animals administered with the test compound to the corresponding volume of tumors (C) of the untreated animals.
# (2) Determination of ED50 :
# On graph paper, T/C (the ratio of the volume of tumors of treated animals to that of control animals) was indicated by an arithmetic scale on the longitudinal axis and the administered amount of the test compound was indicated by a logarithmic scale on the lateral axis. The relationship between the dose and T/C was shown by a straight line determined by the method of least squares, from which a dose corresponding to T/C of 0.5 was obtained.
# [9] = system: peripheral leucocytes; assay: Effect on the peripheral leucocytes number in tumor-carrying mice; type: in vivo, mouse (ddY strain); conditions: dose which reduces peripheral leucocytes number to 4000/mm^3; intraperitoneal, blood 4 days later
# Description: as §2
# WBC4000 indicates the dose of a substance which reduces the peripheral leucocytes number to 4000/mm^3.
# (4) Effect on the peripheral leucocytes number:
# Sarcoma 180 solid tumor cells (5×10^6) were subcutaneously implanted into the right axilla of each mouse (body weight 20±2 g) of a group consisting of 5 male mice (ddY strain). 24 hours after implantation,a test compound was intraperitoneally administered to each animal. 4 days later, blood (each 0.02 ml) was collected from the suborbital plexus vein of each tumor-carrying animal. The collected sample of blood was dispersed in 9.98 ml of Cell-Kit Seven solution. One drop of saponin solution was added to the sample to dissolve erythrocytes and then a microcell counter was used to count the number of leucocytes. On graph paper, the number of leucocytes was indicated on the y-axis by an arithmetic scale and the dose of the test compound was indicated on the x-axis by a logarithmic scale. The relationship between the number of peripheral leucocytes and the dosage of the test compound was plotted and the dosage corresponding to 4000 peripheral leucocytes/mm^3 (about half the number of leucocytes of normal mice) was obtained. This value is denoted in Table 2 by WBC4000.
# [10] = system: P-388 leukemia resistant to mitomycin C; assay: Anti-tumor activity against P-388 leukemia resistant to mitomycin C; type: in vivo, mouse (CDF1); conditions: for ILS %: i.p. once
# Method: (§3) Ascites was sampled from the abdominal cavity of tumor-bearing mice (DBA/2) 7 days after transplantation of P-388 ascitic tumor. The number of the P-388 cells in the ascites was counted. A suspension of the tumor cells of 5×10^6 /ml was prepared using sterilized physiological saline, and 0.2 ml of the suspension (containing 1×10^6 cells) was intraperitoneally transplanted to CDF1 mice weighing 20 to 25 g. Twenty-four hours after the transplantation of the tumor, a test compound was intraperitoneally administered once to groups of the CDF1 mice, each group consisting of 6 mice. […] The effect of the compound was evaluated by a ratio of a mean survival days of the group treated with the compound to a mean survival days of the control group (untreated group) after 33 days of observation (Increased Life Span, ILS %).
# [11] = system: tumor; assay: Anti-tumor activity of Compound A stated in words (GB 2121796A / inventors' own observation); conditions: noted by the present inventors
# [12] = system: tumor; conditions: reported in GB 2121796A; cited from earlier work
# [13] = system: leukemia P-388; assay: Anti-tumor activity against leukemia P-388; type: in vivo, mouse (CDF1); conditions: for ILS %: i.p. once, 33 days
# Method: as §3
# [14] = ATCC9290, pH 7, read-out: minimum growth inhibitory concentration
# [15] = pH 7, read-out: minimum growth inhibitory concentration
# [16] = ATCC10541, pH 7, read-out: minimum growth inhibitory concentration
# [17] = Bacillus subtilis, 10707, pH 7, read-out: minimum growth inhibitory concentration
smiles,measurement,setting,value
"CO[C@]12[C@@H]3[C@H](CN1C1=C(C(=O)C(N=CN(C)C)=C(C)C1=O)[C@@H]2COC(N)=O)N3C (some centres unmarked) [Compound 4a, 7-N-Dimethylaminomethylenemitomycin E]",MIC,[1]; [14],10 µg/mL
same,MIC,[2]; [15],20 µg/mL
same,MIC,[3]; [16],0.63 µg/mL
same,MIC,[4],2.5 µg/mL
same,MIC,[5]; [15],0.63 µg/mL
same,MIC,[6]; [17],0.16 µg/mL
"CO[C@]12[C@@H]3[C@H](CN1C1=C(C(=O)C(N=CN(C)C)=C(C)C1=O)[C@@H]2COC(=O)N=CN(C)C)N3C (some centres unmarked) [Compound 4b, 7-N,N^10-bis(dimethylaminomethylene)mitomycin E]",MIC,[3]; [16],5 µg/mL
same,MIC,[4],40 µg/mL
same,MIC,[5]; [15],10 µg/mL
same,MIC,[6]; [17],2.5 µg/mL
"CC1=C(N=CN(C)C)C(=O)C2=C(C1=O)N1C[C@H]3[C@H](N3C)[C@]1(O)[C@@H]2COC(N)=O (stereo partly drawn) [Compound 6c, 9-Epi-7-N-dimethylaminomethylenemitomycin D]",MIC,[1]; [14],40 µg/mL
same,MIC,[2]; [15],5 µg/mL
same,LD50 at 336 h,[7],9.4 mg/kg
same,MIC,[3]; [16],1.3 µg/mL
same,ED50,[8],14 mg/kg
same,WEC4000,[9],11.2 mg/kg
same,MIC,[4],0.63 µg/mL
same,MIC,[5]; [15],2.5 µg/mL
same,MIC,[6]; [17],0.63 µg/mL
"CO[C@@]12[C@H](COC(N)=O)C3=C(C(=O)C(C)=C(N=CN(C)C)C3=O)N1C[C@@H]1N[C@@H]12 [Compound A, 7-N-Dimethylaminomethylenemitomycin C]",maximum increased life span,"[10]; P-388 resistant to mitomycin C, Table 4, maximum over doses",73%
same,ILS %,[10]; dose 0.25 mg/kg,47%
same,ILS %,[10]; dose 0.5 mg/kg,73%
same,ILS %,[10]; dose 1.0 mg/kg,68%
same,ILS %,[10]; dose 2.0 mg/kg,47%
same,ILS %,[10]; dose 4.0 mg/kg,-41%
same,ILS %,[10]; dose 6.0 mg/kg,-47%
same,anti-tumor activity,[11],excellent anti-tumor activity
same,anti-tumor activity,[12],particularly excellent anti-tumor activity
same,maximum increased life span,"[13]; P-388, Table 3, maximum over doses",75%
same,ILS %,[13]; dose 0.0625 mg/kg,15%
same,ILS %,[13]; dose 0.125 mg/kg,48%
same,ILS %,[13]; dose 0.25 mg/kg,45%
same,ILS %,[13]; dose 0.5 mg/kg,63%
same,ILS %,[13]; dose 1.0 mg/kg,68%
same,ILS %,[13]; dose 2.0 mg/kg,75%
same,ILS %,[13]; dose 4.0 mg/kg,20%
"CO[C@@]12[C@H](COC(N)=O)C3=C(C(=O)C(C)=C(N)C3=O)N1C[C@@H]1N[C@@H]12 [MM-C, mitomycin C, reference compound]",MIC,"[1]; ATCC9290, SS, pH 7.0, agar dilution, read-out: minimum growth inhibitory concentration",2.5 µg/mL
same,MIC,"[2]; PV, pH 7.0, agar dilution, read-out: minimum growth inhibitory concentration",0.08 µg/mL
same,MIC,"[3]; ATCC10541, SF, pH 7.0, agar dilution, read-out: minimum growth inhibitory concentration",0.31 µg/mL
same,MIC,"[5]; SA, pH 7.0, agar dilution, read-out: minimum growth inhibitory concentration",0.16 µg/mL
same,MIC,"[6]; Bacillus subtilis, 10707, BS, pH 7.0, agar dilution, read-out: minimum growth inhibitory concentration",0.04 µg/mL
